In the NIST ThermoML archive (doi:10.1016/j.jct.2013.08.030):
Numbers after ± are expanded uncertainties.

Assay: activity coefficient (dimensionless); of the first substance listed, at infinite dilution; xn = mol fraction of the nth substance listed
Settings: 101 kPa, Liquid, Chromatography, x1 = 0

Row | SMILES | activity coefficient (318.15 K) | activity coefficient (328.15 K) | activity coefficient (338.15 K) | activity coefficient (348.15 K) | activity coefficient (358.15 K) | activity coefficient (368.15 K)
1 | C1CCCCCC1 [cycloheptane] + CCCC[N+]1(C)CCOCC1.N#C[C-](C#N)C#N | 28.1 ± 1.9 | 26 ± 1.8 | 24 ± 1.6 | 22.5 ± 1.5 | 21 ± 1.4 | 19.7 ± 1.3
2 | C1CCCCC1 [cyclohexane] + CCCC[N+]1(C)CCOCC1.N#C[C-](C#N)C#N | 22.6 ± 1.5 | 20.8 ± 1.4 | 19.3 ± 1.3 | 18 ± 1.2 | 16.9 ± 1.2 | 16 ± 1.1
3 | C1=CCCCC1 [cyclohexene] + CCCC[N+]1(C)CCOCC1.N#C[C-](C#N)C#N | 9.44 ± 0.64 | 9.08 ± 0.62 | 8.71 ± 0.59 | 8.46 ± 0.58 | 8.16 ± 0.56 | 7.92 ± 0.54
4 | C1CCCCCCC1 [cyclooctane] + CCCC[N+]1(C)CCOCC1.N#C[C-](C#N)C#N | 37 ± 2.5 | 34.1 ± 2.3 | 31.2 ± 2.1 | 29.1 ± 2 | 27 ± 1.8 | 25.1 ± 1.7
5 | C1CCCC1 [cyclopentane] + CCCC[N+]1(C)CCOCC1.N#C[C-](C#N)C#N | 14.7 ± 1 | 13.7 ± 0.9 | 12.8 ± 0.9 | 12.1 ± 0.8 | 11.4 ± 0.8 | 10.9 ± 0.7
6 | CCCCCCCCCC [decane] + CCCC[N+]1(C)CCOCC1.N#C[C-](C#N)C#N | 289 ± 20 | 251 ± 17 | 224 ± 15 | 202 ± 14 | 183 ± 13 | 166 ± 11
7 | CCOCC [diethyl ether] + CCCC[N+]1(C)CCOCC1.N#C[C-](C#N)C#N | 5.39 ± 0.37 | 5.33 ± 0.36 | 5.27 ± 0.36 | 5.24 ± 0.36 | 5.21 ± 0.36 | 5.16 ± 0.35
8 | CC(C)OC(C)C [diisopropyl ether] + CCCC[N+]1(C)CCOCC1.N#C[C-](C#N)C#N | 17.8 ± 1.2 | 17.4 ± 1.2 | 16.8 ± 1.1 | 16.5 ± 1.1 | 16 ± 1.1 | 15.6 ± 1.1
9 | CCCOCCC [dipropyl ether] + CCCC[N+]1(C)CCOCC1.N#C[C-](C#N)C#N | 16.4 ± 1.1 | 15.9 ± 1.1 | 15.4 ± 1.1 | 14.9 ± 1 | 14.4 ± 1 | 13.9 ± 1
10 | CCO [ethanol] + CCCC[N+]1(C)CCOCC1.N#C[C-](C#N)C#N | 1.26 ± 0.08 | 1.19 ± 0.08 | 1.12 ± 0.07 | 1.06 ± 0.07 | 1.01 ± 0.06 | 0.965 ± 0.061
11 | CCOC(C)=O [ethyl acetate] + CCCC[N+]1(C)CCOCC1.N#C[C-](C#N)C#N | 1.88 ± 0.13 | 1.9 ± 0.13 | 1.92 ± 0.13 | 1.93 ± 0.13 | 1.96 ± 0.13 | 1.98 ± 0.13
12 | CCc1ccccc1 [ethylbenzene] + CCCC[N+]1(C)CCOCC1.N#C[C-](C#N)C#N | 3.74 ± 0.25 | 3.74 ± 0.25 | 3.75 ± 0.26 | 3.75 ± 0.26 | 3.75 ± 0.26 | 3.75 ± 0.26
13 | CCCCCCC [heptane] + CCCC[N+]1(C)CCOCC1.N#C[C-](C#N)C#N | 84 ± 5.8 | 76.8 ± 5.3 | 69.6 ± 4.8 | 63.3 ± 4.3 | 58.7 ± 4 | 53.7 ± 3.7
14 | C=CCCCC [hex-1-ene] + CCCC[N+]1(C)CCOCC1.N#C[C-](C#N)C#N | 22.6 ± 1.5 | 21.3 ± 1.5 | 20 ± 1.4 | 19.1 ± 1.3 | 18.2 ± 1.2 | 17.4 ± 1.2
15 | CCCCCC [hexane] + CCCC[N+]1(C)CCOCC1.N#C[C-](C#N)C#N | 56.5 ± 3.9 | 51.1 ± 3.5 | 46.7 ± 3.2 | 43.2 ± 3 | 40.3 ± 2.8 | 37.2 ± 2.5
16 | CO [methanol] + CCCC[N+]1(C)CCOCC1.N#C[C-](C#N)C#N | 0.825 ± 0.053 | 0.79 ± 0.051 | 0.762 ± 0.05 | 0.729 ± 0.048 | 0.704 ± 0.047 | 0.677 ± 0.046
17 | CCCC(=O)OC [methyl butanoate] + CCCC[N+]1(C)CCOCC1.N#C[C-](C#N)C#N | 2.42 ± 0.16 | 2.46 ± 0.17 | 2.49 ± 0.17 | 2.51 ± 0.17 | 2.54 ± 0.17 | 2.56 ± 0.17
18 | COC(C)=O [methyl ethanoate] + CCCC[N+]1(C)CCOCC1.N#C[C-](C#N)C#N | 1.2 ± 0.08 | 1.23 ± 0.08 | 1.24 ± 0.08 | 1.26 ± 0.08 | 1.29 ± 0.08 | 1.3 ± 0.08
19 | CCC(=O)OC [methyl propanoate] + CCCC[N+]1(C)CCOCC1.N#C[C-](C#N)C#N | 1.64 ± 0.11 | 1.67 ± 0.11 | 1.7 ± 0.11 | 1.73 ± 0.12 | 1.76 ± 0.12 | 1.79 ± 0.12
20 | CC1CCCCC1 [methylcyclohexane] + CCCC[N+]1(C)CCOCC1.N#C[C-](C#N)C#N | 35.2 ± 2.4 | 32.3 ± 2.2 | 29.7 ± 2 | 27.6 ± 1.9 | 25.7 ± 1.8 | 24 ± 1.6
21 | CCCCCCCCC [nonane] + CCCC[N+]1(C)CCOCC1.N#C[C-](C#N)C#N | 187 ± 13 | 168 ± 12 | 151 ± 10 | 137 ± 9 | 126 ± 9 | 115 ± 8
22 | C=CCCCCCC [oct-1-ene] + CCCC[N+]1(C)CCOCC1.N#C[C-](C#N)C#N | 52.7 ± 3.6 | 49.1 ± 3.4 | 45.7 ± 3.1 | 43 ± 2.9 | 40.6 ± 2.8 | 38.1 ± 2.6
23 | CCCCCCCC [octane] + CCCC[N+]1(C)CCOCC1.N#C[C-](C#N)C#N | 125 ± 9 | 113 ± 8 | 102 ± 7 | 93.4 ± 6.4 | 86.5 ± 5.9 | 78.6 ± 5.4
24 | CCCC(C)=O [pentan-2-one] + CCCC[N+]1(C)CCOCC1.N#C[C-](C#N)C#N | 1.44 ± 0.09 | 1.47 ± 0.1 | 1.49 ± 0.1 | 1.5 ± 0.1 | 1.53 ± 0.1 | 1.54 ± 0.1
25 | CCC(=O)CC [pentan-3-one] + CCCC[N+]1(C)CCOCC1.N#C[C-](C#N)C#N | 1.42 ± 0.09 | 1.44 ± 0.09 | 1.47 ± 0.1 | 1.49 ± 0.1 | 1.51 ± 0.1 | 1.54 ± 0.1
26 | CCCCC [pentane] + CCCC[N+]1(C)CCOCC1.N#C[C-](C#N)C#N | 39.7 ± 2.7 | 35.5 ± 2.4 | 32.2 ± 2.2 | 29.8 ± 2 | 27.7 ± 1.9 | 26.2 ± 1.8
